Test results reported in patent US20110212475A1, “Fluorescently Or Spin-Labeled Kinases For Rapid Screening And Identification Of Novel Kinase Inhibitor Scaffolds” (priority 2008, published 2011).

How the values were obtained:
p38α [1] = molecular target: T1, p38α (Homo sapiens, UniProt Q16539, A172C/C119S/C162S/F327L); test: acrylodan-labeled p38α (ac-p38α) fluorescence binding assay, endpoint Kd measurements; settings: for Kd: pyrazolourea derivatives of BIRB-796, 50 nM ac-p38α, cuvettes
T1 construct: His-tag with PreScission site (N, cleaved yes); GST (N); made in house; host or cells: E. coli BL21(DE3)
T1 sequence (Q16539 whole entry C119S/C162S/A172C/F327L): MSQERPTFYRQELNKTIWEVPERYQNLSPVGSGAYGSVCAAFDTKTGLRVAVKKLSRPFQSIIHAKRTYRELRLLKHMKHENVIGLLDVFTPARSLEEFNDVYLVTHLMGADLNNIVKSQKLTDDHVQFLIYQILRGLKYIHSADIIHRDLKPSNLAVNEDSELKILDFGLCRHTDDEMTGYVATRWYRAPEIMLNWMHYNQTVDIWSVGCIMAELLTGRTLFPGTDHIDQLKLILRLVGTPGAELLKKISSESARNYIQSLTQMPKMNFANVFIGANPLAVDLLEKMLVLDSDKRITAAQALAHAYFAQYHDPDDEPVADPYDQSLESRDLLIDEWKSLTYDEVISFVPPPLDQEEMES

cSrc = molecular target: T2, cSrc (Gallus gallus, UniProt P00523, C277S/C483S/C496S/L407C); test: acrylodan-labeled cSrc fluorescence binding assay; set-up: species or system chicken; settings: any concentration
T2 construct: The chicken cSrc gene (residues 251-533); His tag with PreScission site (N, cleaved yes); made in house; host or cells: E. coli BL21(DE3) Codon+RIL
Protocol: Acrylodan-labeled cSrc (50 nM) was placed into cuvettes with a rapidly stirring mini stir bar while monitoring acrylodan fluorescence (left panel).
Crystal structures of chicken cSrc (kinase domain) in the DFG-in and DFG-out conformations were closely examined to identify a suitable fluorophore attachment site near the N-terminal end of the activation loop of cSrc which would report the binding of allosteric inhibitors by sensing changes in the activation loop conformation. Care was taken to not choose residues that were known phosphorylation sites or other sites that appeared to be critical to maintaining protein stability. A Cys was introduced into the chosen position (L407C) by site-directed mutagenesis while non-specific labeling was minimized by conservatively mutating other solvent exposed Cys into Ser (C277S, C483S, C496S).
Pure cSrc kinase containing the labeling site Cys mutation (L407C) and acrylodan (dissolved in DMF) were combined in buffer (pH 7.0) at a ratio of 1:1.5 protein:fluorophore and allowed to react in the dark overnight at 4° C. […] The labeled cSrc was then aliquoted, kept dark and frozen at −20° C.
Screening initiatives were carried out for acrylodan-labeled cSrc in 384-well plates. Stocks of candidate compounds were prepared in DMSO at 20× the final desired concentration. […]

p38α [2] = molecular target: T1, p38α; test: ac-p38α real-time fluorescence measurements of binding and dissociation kinetics; settings: for t1/2 of dissociation: t1/2 = ln 2/kobs; for real-time fluorescence response upon addition to ac-p38α: cuvette method, acrylodan emission at 468 nm
Protocol: The conditions for such measurements are currently being further optimized (buffer, temperature, protein and inhibitor concentrations, length of incubation).
The addition of excess kinase causes the inhibitor to redistribute, resulting in a net dissociation of inhibitor from ac-p38α and a fluorescence increase which was fit to a first-order function.
After measuring koff for allosteric compounds, Applicants established conditions for measuring the kon of the same compounds. This was accomplished using the cuvette method by adding various concentrations of inhibitor to ac-p38α and fitting the fluorescence decay to a first-order function.

PC3 cells [3] = test: cell-to-cell contacts by light microscopy, PC3 cells; assay type: cell-based; settings: 24 hours treatment; 11c 10 μM, dasatinib 100 nM
Description: (§1) Reduction of cell-to-cell-contacts and cell proliferation in PC3 and DU145 cells by (11c, RL46). […] Total expression of FAK was unchanged while cSrc expression was increased in both cell lines. (b). Cell-to-cell contacts visualized by light microscopy at 10× magnification.

PC3 cells [4] = test: immunoblot analysis of pSrc and pFAK in PC3 cells; assay type: cell-based; settings: 5 hr treatment; 11c 1, 2, 5, 10 μM, dasatinib 100 nM
Protocol: (§2) PC3 and DU145 were generously provided by Dr. Roman Thomas (Max Planck Institute for Neurological Research, Cologne). The cells were cultured in Dulbecco's modified Eagle's medium (DMEM) supplemented with 10% heat-inactivated fetal bovine serum (FBS) and 100 units/mL penicillin/streptomycin. Cells were cultured at 37° C. in humidified air containing 5% CO2. After inhibitor treatment (5 h), the cells were washed twice in cold phosphate-buffered saline (PBS) and then lysed for 10 min on ice in lysis buffer (20 mM Tris-HCl pH 7.5, 150 mM NaCl, 1% Triton, 1 mM Na2EDTA, 1 mM EGTA, 2.5 mM sodium pyrophosphate, 1 mM β-glycerophosphate, 1 mM Na3VO4, 1 μg/mL leupeptin, 1 mM PMSF, and common protease inhibitors). Subsequently, cells were centrifuged for 20 min at 20000×g and 4° C. The supernatant was subjected to immunoblot analysis.
(§3) Protein concentration was measured using a spectrophotometer (ND-1000, peQLab). Equal amounts of protein were separated by SDS-PAGE and transferred to nitrocellulose membranes. […] After washing, blots were incubated with secondary antibodies and then detected on film using the enhanced chemiluminescence (ECL) detection system.
(§4) Applicants monitored the phosphorylation state of Y416—an autophosphorylation site in the activation loop of cSrc—and Y576/Y577—two residues in the activation loop of focal adhesion kinase (FAK). […]

DU145 cells [5] = test: cell-to-cell contacts by light microscopy, DU145 cells; assay type: cell-based; settings: 24 hours treatment; 11c 10 μM, dasatinib 100 nM
Description: as §1

DU145 cells [6] = test: immunoblot analysis of pSrc and pFAK in DU145 cells; assay type: cell-based; settings: 5 hr treatment; 11c 1, 2, 5, 10 μM, dasatinib 100 nM
Protocol: as §2, §3, §4

p38α [7] = molecular target: p38α (Homo sapiens, UniProt Q16539); test: HTRF kinase assay (CisBio), activity-based, p38α; assay type: biochemical; settings: compounds HTS 1-15
Chain of p38α (Homo sapiens, UniProt Q16539) (Q16539 whole entry): as the sequence (Q16539 whole entry C119S/C162S/A172C/F327L) above, with S119C, S162C, C172A, L327F counted along it

p38α [8] = molecular target: T1, p38α; test: HTS screen with acrylodan-labeled p38α, 384-well secondary screen for Kd; assay type: binding; settings: compounds HTS 1-15
Protocol: The complete screen was carried out by first using the labeled kinase binding assay in a 384-well HTS format to initially screen for possible ligands for the DFG-out conformation, or DFG-out binders. This was accomplished by first performing a primary screen at a single concentration of each ligand, followed by a secondary screen over a range of concentrations to directly determine the Kd of each potential hit.
The methods for the setup and execution of the screen are provided below. […] Large volumes of the same buffer were also use to prepare solutions for pipetting background (no labeled kinase added) and screening plates (+100 nM acrylodan-labeled p38α).
An industrial pipetting robot was used to first dispense […] of pre-diluted compounds into a set of two 384-well small volume assay plates. Subsequently, 15 μl of buffer was added to the background plate while the same volume of buffer containing the labeled kinase was added to the screening plate to detect DFG-out binders. […] A Tecan Safire^2 instrument was used to measure the fluorescence read-out in the 384-well plate format.
A secondary screen was carried out also in 384-well plates using a range of concentrations (100 nM to 50 μM) of each ligand in order to generate binding curves or identify false hits which were picked up due to high degrees of fluorescence interference. […] As before, large volumes of the same buffer were also used to prepare solutions for pipetting background (no labeled kinase added) and screening plates (+100 nM acrylodan-labeled p38α). The pipetting robot was used to first dispense 3.5 μl of pre-diluted compounds into a set of two 384-well small volume assay plates. Each plate contained no more than 7 different compounds identified in the primary screen, each screened at 10 concentrations (100 nM to 50 μM) and 4 wells per concentration. Subsequently, 3.5 μl of buffer was added to the background plate while the same volume of buffer containing the labeled kinase was added to the screening plate. Plates were sealed, incubated and measured as described for the primary screen. […] An exemplary sample plate layout is shown below.
Where indicated, binding curves were also plotted as % p38α bound by the ligand. The % p38α bound is calculated as follows: […]

SMILES	IC50 (p38α [7]) [µM]	Kd (p38α [8]) [µM]	also measured
CC(C)(C)c1cc(NC(=O)Nc2ccc(Cl)cc2)n(-c2ccc(C(F)(F)F)cc2Cl)n1 [7, RL19]			fluorescence response of ac-p38α (p38α [1]; endpoint measurements): complete lack of fluorescence response; Kd (p38α [1]): No Binding; fluorescence ratio response (cSrc): did not respond
Cc1ccccc1-n1nc(C(C)(C)C)cc1NC(=O)Nc1ccc(Cl)cc1 [12D, RL15]			Kd (p38α [1]; read-out: Kd): 0.347 µM
Cc1cccc(-n2nc(C(C)(C)C)cc2NC(=O)Nc2ccc(Cl)cc2)c1 [12a, RL29]			t1/2 of dissociation (p38α [2]): 52.3 min
Cc1ccc(-n2nc(C(C)(C)C)cc2NC(=O)Nc2ccc(Cl)cc2)cc1Cl [12b, RL18]			Kd (p38α [1]; read-out: Kd): 0.018 µM
Cc1ccc(-n2nc(C(C)(C)C)cc2NC(=O)Nc2ccc(Cl)cc2)cc1 [12c, RL17]			Kd (p38α [1]; read-out: Kd): 0.034 µM
Cc1ccc(-n2nc(C(C)(C)C)cc2NC(=O)Nc2cccc3ccccc23)cc1 [14a, RL36]			Kd (p38α [1]; read-out: Kd): 0.011 µM
Cc1ccc(-n2nc(C(C)(C)C)cc2NC(=O)Nc2ccc(OCCN3CCOCC3)cc2)cc1 [15, RL39]			t1/2 of dissociation (p38α [2]): 11.2 min
Cc1nc(Nc2ncc(C(=O)Nc3c(C)cccc3Cl)s2)cc(N2CCN(CCO)CC2)n1 [Dasatinib]			cell-to-cell contacts and intact cells (PC3 cells [3]): markedly reduced cell-to-cell-contacts and fewer intact cells; pSrc and pFAK levels (PC3 cells [4]): markedly reduced; cell-to-cell contacts and intact cells (DU145 cells [5]): markedly reduced cell-to-cell-contacts and fewer intact cells; real-time fluorescence response upon addition to ac-p38α (p38α [2]): instantaneous fluorescence response; pSrc and pFAK levels (DU145 cells [6]): markedly reduced
COC(=O)C1=CO[C@@H](C)[C@H]2CN3CCc4c([nH]c5cc(OC)ccc45)[C@H]3C[C@@H]12 [HTS 3]	18.3 ± 7.2	2.2 ± 0.11	
Fc1cccc(COc2ccc(Nc3ncnc4ccccc34)cc2Cl)c1 [HTS 4]	> 50	10.3 ± 2.2	
O=C(CN1C(=O)c2cccc3cccc1c23)Nc1cccc(C(F)(F)F)c1 [HTS 5]	> 50	3.1 ± 0.91	
NS(=O)(=O)c1ccc(CCNc2nc3c(-c4cccc(C(F)(F)F)c4)nnn3c3ccccc23)cc1 [HTS 6]	> 50	0.301 ± 0.059	
CC(=O)Nc1ccc(C(=O)Nc2ccc(-c3nc4cc(NC(=O)c5ccc(NC(C)=O)cc5)ccc4[nH]3)cc2)cc1 [HTS 7]	15.3 ± 2.8	6.18 ± 2.31	
CCOC(=O)c1c(C)c(C(=O)N2CCN(Cc3ccccc3)CC2)c(C)n1CC [HTS 8]	2.6 ± 0.9		
CCc1ccc(NCc2cc3cc(OC)c(OC)cc3n(CC(=O)Nc3cc(C)ccc3C)c2=O)cc1 [HTS 9]	25.6 ± 4.7	24.9 ± 4.9	
Cc1ccc(NCc2cc3cc4c(cc3n(CC(=O)Nc3ccccc3F)c2=O)OCCO4)cc1 [HTS 10]	31.3 ± 17.2	29.4 ± 4	
O=C(c1ccc(CSc2nc3ccncc3[nH]2)cc1)N1CCC(Cc2ccccc2)CC1 [HTS 11]	2.6 ± 0.92	2.3 ± 0.57	
Cc1ccc(C(=O)NCCC23CC4CC(CC(C4)C2)C3)cc1NC1=NC2CS(=O)(=O)CC2S1 (stereo not drawn) [HTS 12]	11 ± 1.5	1.3 ± 0.08	t1/2 of binding (p38α [2]; HTS hit, real-time kinetic measurement): ~0.633 min
O=C(CSc1cn(CCNC(=O)c2cccc(C(F)(F)F)c2)c2ccccc12)Nc1ccc2c(c1)OCCO2 [HTS 13]	1.1 ± 0.4		
Clc1cccc(-c2nc3cnccn3c2NC2CCCCC2)c1 [HTS 14]		100 ± 5.8	
Brc1cccc(-c2nc3cnccn3c2NC2CCCC2)c1 [HTS 15]		27.5 ± 5.3	
Fc1ccc(-c2nc3n(c2-c2ccncc2)CCS3)cc1 [SKF86002, reference compound]			real-time fluorescence response upon addition to ac-p38α (p38α [2]): instantaneous response
CNC(=O)c1cc(Oc2ccc(NC(=O)Nc3ccc(Cl)c(C(F)(F)F)c3)cc2)ccn1 [sorafenib, reference compound]			t1/2 of dissociation (p38α [2]): 2.4 min
